Experiments:
[1] = Solubility in water (comparative data and examples); assay type: physicochemical; details: in 1 liter of water at 20-25° C.
[2] = water at 20° C.; literature value (index Merck Ref. 1675; F.C.C. IV Ed. Page 153); cited from earlier work

## O=C([O-])[C@H](O)[C@@H](O)[C@H](O)[C@H](O)CO.O=C([O-])[C@H](O)[C@@H](O)[C@H](O)[C@H](O)CO.[Fe+2] [Fe(II) gluconate]
[1]
  solubility, amount in 1 liter of water: 85-100 gr.
[2]
  solubility in water: 100 gr/1000 ml

— patent US20030049284A1, “Method of increasing the solubility of alphahydrocarboxilic salts, and products obtained by the method” (priority 2001, published 2003)
